Test results from PubChem BioAssay (NCI).
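Dose response: 5 concentrations. Exposure: 48 h. Format: 96-well plates. Endpoint: linear interpolation; highest concentration if not reached. At the GI50, growth is halved. TGI denotes the concentration required for complete inhibition of growth.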

What was measured:
Test in all cases: NCI-60 cell line screen, 48 h
HCT-116 colon = tested on: HCT-116 colon
HL-60(TB) leukemia = tested on: HL-60(TB) leukemia
TK-10 renal = tested on: TK-10 renal
HCT-15 colon = tested on: HCT-15 colon
U251 CNS = tested on: U251 CNS
NCI-H23 lung = tested on: NCI-H23 lung
OVCAR-5 ovarian = tested on: OVCAR-5 ovarian
786-0 renal = tested on: 786-0 renal
OVCAR-3 ovarian = tested on: OVCAR-3 ovarian
SK-OV-3 ovarian = tested on: SK-OV-3 ovarian
CAKI-1 renal = tested on: CAKI-1 renal
UO-31 renal = tested on: UO-31 renal
OVCAR-8 ovarian = tested on: OVCAR-8 ovarian
DU-145 prostate = tested on: DU-145 prostate
RPMI-8226 leukemia = tested on: RPMI-8226 leukemia
SF-539 CNS = tested on: SF-539 CNS
MALME-3M melanoma = tested on: MALME-3M melanoma
A498 renal = tested on: A498 renal
KM12 colon = tested on: KM12 colon
OVCAR-4 ovarian = tested on: OVCAR-4 ovarian
RXF 393 renal = tested on: RXF 393 renal
UACC-62 melanoma = tested on: UACC-62 melanoma
SK-MEL-2 melanoma = tested on: SK-MEL-2 melanoma
HS 578T breast = tested on: HS 578T breast
HOP-62 NSCLC = tested on: HOP-62 NSCLC
SW-620 colon = tested on: SW-620 colon
MDA-MB-231 breast = tested on: MDA-MB-231 breast
HCC-2998 colon = tested on: HCC-2998 colon
SF-295 CNS = tested on: SF-295 CNS
ACHN renal = tested on: ACHN renal
HT29 colon = tested on: HT29 colon
NCI/ADR-RES ovarian = tested on: NCI/ADR-RES ovarian
SN12C renal = tested on: SN12C renal
MDA-MB-435 = tested on: MDA-MB-435
SNB-19 CNS = tested on: SNB-19 CNS
EKVX NSCLC = tested on: EKVX NSCLC
A549 NSCLC = tested on: A549 NSCLC
UACC-257 melanoma = tested on: UACC-257 melanoma
PC-3 prostate = tested on: PC-3 prostate
K-562 leukemia = tested on: K-562 leukemia
HOP-92 NSCLC = tested on: HOP-92 NSCLC
NCI-H226 lung = tested on: NCI-H226 lung
COLO 205 colon = tested on: COLO 205 colon
SK-MEL-5 melanoma = tested on: SK-MEL-5 melanoma
M14 melanoma = tested on: M14 melanoma
CCRF-CEM leukemia = tested on: CCRF-CEM leukemia
SF-268 CNS = tested on: SF-268 CNS
MOLT-4 leukemia = tested on: MOLT-4 leukemia
NCI-H460 lung = tested on: NCI-H460 lung
SK-MEL-28 melanoma = tested on: SK-MEL-28 melanoma
BT-549 breast = tested on: BT-549 breast
LOX IMVI melanoma = tested on: LOX IMVI melanoma
MCF7 breast = tested on: MCF7 breast
NCI-H522 lung = tested on: NCI-H522 lung
T-47D breast = tested on: T-47D breast
SNB-75 CNS = tested on: SNB-75 CNS
SR leukemia = tested on: SR leukemia
IGROV1 ovarian = tested on: IGROV1 ovarian

O=C1c2cc3c(cc2-c2c1c1ccc(F)cc1c(=O)n2CCCNCCO)OCO3
GI50 (HCT-116 colon): 19 nM
TGI (HCT-116 colon): 196 nM
GI50 (HL-60(TB) leukemia): 29.1 nM
TGI (HL-60(TB) leukemia): 198 nM
GI50 (TK-10 renal): 148 nM
TGI (TK-10 renal): 0.487 µM
GI50 (HCT-15 colon): 27.7 nM
TGI (HCT-15 colon): 0.27 µM
GI50 (U251 CNS): 22.5 nM
TGI (U251 CNS): 102 nM
GI50 (NCI-H23 lung): 30.4 nM
TGI (NCI-H23 lung): 147 nM
GI50 (OVCAR-5 ovarian): 242 nM
TGI (OVCAR-5 ovarian): 1230 nM
GI50 (786-0 renal): 33.5 nM
TGI (786-0 renal): 776 nM
GI50 (OVCAR-3 ovarian): 75.1 nM
TGI (OVCAR-3 ovarian): 826 nM
GI50 (SK-OV-3 ovarian): 52.5 nM
TGI (SK-OV-3 ovarian): 566 nM
GI50 (CAKI-1 renal): 62.8 nM
TGI (CAKI-1 renal): 1.44 µM
GI50 (UO-31 renal): 29.2 nM
TGI (UO-31 renal): 148 nM
GI50 (OVCAR-8 ovarian): 53.8 nM
TGI (OVCAR-8 ovarian): 356 nM
GI50 (DU-145 prostate): 32.9 nM
TGI (DU-145 prostate): 1090 nM
GI50 (RPMI-8226 leukemia): 57.7 nM
TGI (RPMI-8226 leukemia): 571 nM
GI50 (SF-539 CNS): 40.7 nM
TGI (SF-539 CNS): 324 nM
GI50 (MALME-3M melanoma): 102 nM
TGI (MALME-3M melanoma): 729 nM
GI50 (A498 renal): 137 nM
TGI (A498 renal): 491 nM
GI50 (KM12 colon): 64.6 nM
TGI (KM12 colon): 1060 nM
GI50 (OVCAR-4 ovarian): 194 nM
TGI (OVCAR-4 ovarian): 1330 nM
GI50 (RXF 393 renal): 100 nM
TGI (RXF 393 renal): 322 nM
GI50 (UACC-62 melanoma): 28.1 nM
TGI (UACC-62 melanoma): 174 nM
GI50 (SK-MEL-2 melanoma): 273 nM
TGI (SK-MEL-2 melanoma): 716 nM
GI50 (HS 578T breast): 381 nM
TGI (HS 578T breast): 2.68 µM
GI50 (HOP-62 NSCLC): 36.6 nM
TGI (HOP-62 NSCLC): 496 nM
GI50 (SW-620 colon): 21.8 nM
TGI (SW-620 colon): 1000 nM
GI50 (MDA-MB-231 breast): 255 nM
TGI (MDA-MB-231 breast): 1060 nM
GI50 (HCC-2998 colon): 53.7 nM
TGI (HCC-2998 colon): 272 nM
GI50 (SF-295 CNS): 22.4 nM
TGI (SF-295 CNS): 114 nM
GI50 (ACHN renal): 24.7 nM
TGI (ACHN renal): 104 nM
GI50 (HT29 colon): 27.9 nM
TGI (HT29 colon): 152 nM
GI50 (NCI/ADR-RES ovarian): 37.4 nM
TGI (NCI/ADR-RES ovarian): 1080 nM
GI50 (SN12C renal): 108 nM
TGI (SN12C renal): 861 nM
GI50 (MDA-MB-435): 67.4 nM
TGI (MDA-MB-435): 955 nM
GI50 (SNB-19 CNS): 43.1 nM
TGI (SNB-19 CNS): 1160 nM
GI50 (EKVX NSCLC): 211 nM
TGI (EKVX NSCLC): 1210 nM
GI50 (A549 NSCLC): 33.9 nM
TGI (A549 NSCLC): 188 nM
GI50 (UACC-257 melanoma): 123 nM
TGI (UACC-257 melanoma): 853 nM
GI50 (PC-3 prostate): 144 nM
TGI (PC-3 prostate): 1470 nM
GI50 (K-562 leukemia): 37.3 nM
TGI (K-562 leukemia): 1360 nM
GI50 (HOP-92 NSCLC): 198 nM
TGI (HOP-92 NSCLC): 845 nM
GI50 (NCI-H226 lung): 41.1 nM
TGI (NCI-H226 lung): 192 nM
GI50 (COLO 205 colon): 42.3 nM
TGI (COLO 205 colon): 810 nM
GI50 (SK-MEL-5 melanoma): 109 nM
TGI (SK-MEL-5 melanoma): 232 nM
GI50 (M14 melanoma): 36.7 nM
TGI (M14 melanoma): 1090 nM
GI50 (CCRF-CEM leukemia): 30.1 nM
TGI (CCRF-CEM leukemia): 1270 nM
GI50 (SF-268 CNS): 53.7 nM
TGI (SF-268 CNS): 1160 nM
GI50 (MOLT-4 leukemia): 24 nM
TGI (MOLT-4 leukemia): 1240 nM
GI50 (NCI-H460 lung): 21.9 nM
TGI (NCI-H460 lung): 204 nM
GI50 (SK-MEL-28 melanoma): 329 nM
TGI (SK-MEL-28 melanoma): 1770 nM
GI50 (BT-549 breast): 238 nM
TGI (BT-549 breast): 1.34 µM
GI50 (LOX IMVI melanoma): 13.9 nM
TGI (LOX IMVI melanoma): 58.2 nM
TGI (MCF7 breast): 166 nM
GI50 (NCI-H522 lung): 14 nM
TGI (NCI-H522 lung): 106 nM

COc1cc(/C=C2\CN(S(=O)(=O)c3ccccc3)C/C(=C\c3cc(CN4CCCC4)c(O)c(OC)c3)C2=O)cc(CN2CCCC2)c1O
GI50 (HL-60(TB) leukemia): 513 nM
TGI (HL-60(TB) leukemia): 2730 nM
GI50 (TK-10 renal): 3180 nM
TGI (TK-10 renal): 7.73 µM
GI50 (HCT-15 colon): 2300 nM
TGI (HCT-15 colon): 7.6 µM
GI50 (OVCAR-5 ovarian): 1910 nM
TGI (OVCAR-5 ovarian): 3860 nM
GI50 (786-0 renal): 1860 nM
TGI (786-0 renal): 4320 nM
GI50 (OVCAR-3 ovarian): 1020 nM
TGI (OVCAR-3 ovarian): 3050 nM
GI50 (CAKI-1 renal): 1830 nM
TGI (CAKI-1 renal): 5.21 µM
GI50 (UO-31 renal): 1920 nM
TGI (UO-31 renal): 5310 nM
GI50 (OVCAR-8 ovarian): 1310 nM
TGI (OVCAR-8 ovarian): > 100000 nM
GI50 (DU-145 prostate): 542 nM
TGI (DU-145 prostate): 1910 nM
GI50 (RPMI-8226 leukemia): 1550 nM
TGI (RPMI-8226 leukemia): 5030 nM
GI50 (T-47D breast): 3.76 µM
TGI (T-47D breast): > 100 µM
GI50 (SF-539 CNS): 1640 nM
TGI (SF-539 CNS): 3310 nM
GI50 (SNB-75 CNS): 1270 nM
TGI (SNB-75 CNS): 2710 nM
GI50 (SR leukemia): 458 nM
TGI (SR leukemia): > 100 µM
GI50 (OVCAR-4 ovarian): 1270 nM
TGI (OVCAR-4 ovarian): 3090 nM
GI50 (RXF 393 renal): 1270 nM
TGI (RXF 393 renal): 2800 nM
GI50 (UACC-62 melanoma): 1610 nM
TGI (UACC-62 melanoma): 3240 nM
GI50 (SK-MEL-2 melanoma): 2030 nM
TGI (SK-MEL-2 melanoma): 5020 nM
GI50 (HS 578T breast): 2520 nM
TGI (HS 578T breast): 7.22 µM
GI50 (SF-295 CNS): 1550 nM
TGI (SF-295 CNS): 3640 nM
GI50 (ACHN renal): 1990 nM
TGI (ACHN renal): 4940 nM
GI50 (HT29 colon): 252 nM
TGI (HT29 colon): 1650 nM
GI50 (NCI/ADR-RES ovarian): > 100000 nM
TGI (NCI/ADR-RES ovarian): > 100000 nM
GI50 (SN12C renal): 1080 nM
TGI (SN12C renal): 3220 nM
GI50 (SNB-19 CNS): 1490 nM
TGI (SNB-19 CNS): 3080 nM
GI50 (EKVX NSCLC): 1140 nM
TGI (EKVX NSCLC): 3530 nM
GI50 (A549 NSCLC): 3610 nM
TGI (A549 NSCLC): > 100000 nM
GI50 (PC-3 prostate): 1410 nM
TGI (PC-3 prostate): 3910 nM
GI50 (HOP-92 NSCLC): 1510 nM
TGI (HOP-92 NSCLC): 4690 nM
GI50 (IGROV1 ovarian): 1540 nM
TGI (IGROV1 ovarian): 3.29 µM
GI50 (SF-268 CNS): 1450 nM
TGI (SF-268 CNS): 4060 nM
GI50 (SK-MEL-28 melanoma): 1880 nM
TGI (SK-MEL-28 melanoma): 3560 nM
GI50 (BT-549 breast): 1990 nM
TGI (BT-549 breast): 5.14 µM
GI50 (LOX IMVI melanoma): 332 nM
TGI (LOX IMVI melanoma): 1140 nM
GI50 (NCI-H522 lung): 318 nM
TGI (NCI-H522 lung): 2110 nM
